From US11684592B2, “Multiresistant-tumour sensitiser” (Instituto Nacional de Neurologia Y Neurocirugia Manuel …, priority 2017, dated 2023)

Legend:
[1] = tested on: Keap1, Nrf2 and p62 in C6 cells; test: Sequential immunofluorescence, co-location of Keap1-p62, Nrf2-p62 and Keap1-Nrf2; format: cell-based, rat; conditions: Cur-[G2]-OH 6, 45 or 90 µM, 24 hours
Experimental: Sequential immunofluorescence: For the protein co-location studies of Keap1-p62, Nrf2-p62 and Keap1-Nrf2, 5×10^3 C6 cells/well were grown in half-area 96 well plates and incubated for 24 hours. Subsequently, the cells were treated with Cur-[G2]-OH (6, 45 or 90 µM) and incubated for 24 hours. In control cells only DMEM medium was replaced by fresh medium. Then, cells were washed with cold PBS and fixed with paraformaldehyde (4% in PBS) or with a mix of methanol/acetone, with paraformaldehyde, cells were washed and permeabilized with PBST (this step was not performed on the cells fixed with methanol/acetone). Cells were washed again and blocked in BSA at 1% in PBST.
The cells were incubated in the first primary antibody (Keap1 or Nrf2) at 4° C. overnight, and subsequently washed and re-incubated with the fluorochrome-conjugated secondary antibody (Alexa fluor 488 Abcam® ab150129), in the dark for 1 hour at room temperature. They were washed and again blocked for 30 minutes with goat serum; The serum was removed and the solution of the second respective primary antibody (p62 or Nrf2) was placed. It was incubated at 4° C. overnight. The incubation of the secondary antibodies proceeded in the same manner as described before, but using the Alexa flour 647 antibody from Abcam® (ab150079). The nuclei were stained with Hoechst 33342 solution (0.1 μg/ml) and the images were captured on a Cytation 3® multimodal plate reader (Bio Tek®, Instruments Inc.), with the Gen5 2.06 program using DAPI filters (λ=377-447 nm), GFP (λ=469-525 nm) and Texas Red (λ=586-647 nm).

[2] = tested on: Beclin-1, p62, Nrf2, eIF2a and p-eIF2α in C6 cells; test: Analysis of autophagy markers and Nrf2 pathway by Western blot; format: cell-based, rat
Experimental: C6 cells were grown in 25 cm^2 culture bottles (Corning® N.Y.) to form a 70% confluent monolayer (approximately 4×10^6 cells) and treated with Cur-[G2]-OH (300 μM) for 24 hours. The cells were washed in cold PBS, and lysis buffer (50 mM Tris-HCl, 120 mM NaCl, 0.01% IGEPAL) was added with a protease inhibitor cocktail (Sigma® P8340) and centrifuged to recover the supernatant. Proteins were quantified by the Lowry method (Lowry et al. 1951).
[…] The membranes were blocked with skim milk and subsequently incubated with the respective primary antibody (Beclin1, ab62557; p62, ab91526; Nrf2, sc-30915; p-eIF2α, sc-12412; eIF2, sc-11386 or β-actin, sc-47778) under stirring overnight at 4° C. After incubation, the membranes were washed with a Tween 20 tris-base saline buffer (TBST) and incubated with the respective secondary antibody conjugated to horseradish peroxidase (SIGMA). The bands were visualized by chemiluminescence with the Western Blotting Luminol Reagent reagents (Santacruz Biotechnology®), and the ChemiDoc-It® TS2 Imaging System (UVP, LLC).

[3] = Stability in acidic pH of gastric juices; format: physicochemical
[4] = tested on: C6 cells; test: Determination of Reactive Oxygen Species (ROS); format: cell-based, rat; conditions: 1 hour
Experimental: Intracellular generation of ROS was evaluated in real time by fluorescence microscopy using the ENZ-51011 detection kit (Enzo® Life Sciences). 5×10^3 cells per well were grown in half-area 96 wells plates (Costar 3595®) and incubated for 24 hours. Then, were incubated for 1 hour, with curcumin (2, 15, 30 or 100 μM), or Cur-[G2]-OH (6, 45, 90 or 300 μM) alone or in the presence of the ROS inhibitor N-Acetyl Cysteine (NAC, 400 μM) according to the manufacturer's instructions. As controls, pyocyanin (200 μM) was used as an inducer and NAC […] as an inhibitor, or DMEM medium with or without DMSO as a negative control. At the end of treatment, the test solutions were withdrawn, and the ROS detection solution was added. The plates were observed under bright field and fluorescence microscopy with the GFP filter (λ=469-525 nm), in the Cytation 3® multimodal reader (BioTek®, USA), and the images were captured and analyzed with the Gen5 2.06 program (BioTek®, USA). The experiments were performed five times.

[5] = Cur-[G2]-OH 300 μM, 24 h, vs untreated cells
[6] = curcumin 2, 15 and 30 μM or Cur-[G2]-OH 6, 45 and 90 μM, 24 h

SMILES: COc1cc(/C=C/C(=O)/C=C(O)/C=C/c2ccc(OC(=O)C(C)(COC(=O)C(C)(CO)CO)COC(=O)C(C)(CO)CO)c(OC)c2)ccc1OC(=O)C(C)(COC(=O)C(C)(CO)CO)COC(=O)C(C)(CO)CO [Cur-[G-2]-OH]
- co-location Keap1-Nrf2 in the nucleus [1]: interaction of Keap1 with Nrf2 in this subcellular compartment is observed
- expression of Keap1 in nucleus and cytoplasm (immunofluorescence) [1]: significant levels are still detected, both in the nucleus and in the cytoplasm
- expression of Nrf2 in cytoplasm and nucleus (immunofluorescence) [1]: rapidly induces the loss of the expression of protein Nrf2 in the cytoplasm and the attenuation of the signal in the nucleus
- p62 localisation and co-location Keap1-p62 [1]: promotes the exclusion of p62 from the nucleus and its interaction with Keap1 in the cytoplasm and autophagosomes
- expression of Beclin1 (Western blot) [2, 5]: increases the expression of Beclin1
- expression of p62 (Western blot) [2, 5]: decreases the expression of p62
- total levels of the Nrf2 protein (immunoblot) ([2]; Cur-[G2]-OH 300 μM, vs untreated cells): significant decrease in Total levels of the Nrf2 protein
- levels of total eIF2-α (immunoblot) [2, 6]: without substantial changes in the levels of total eIF2-α
- phosphorylation of eIF2-α (p-eIF2-α, immunoblot) [2, 6]: significant decrease in phosphorylation of eIF2-α
- stability in acidic pH [3]: instability of Cur-[G-2]-OH in the acidic pH of gastric juices
- generation of ROS ([4]; curcumin 2, 15, 30 or 100 μM or Cur-[G2]-OH 6, 45, 90 or 300 μM, without NAC): promotes the generation of ROS in a concentration-depending manner
- generation of ROS in the presence of N-acetyl Cysteine (NAC) ([4]; with NAC 400 μM): not substantially modified with the use of an antioxidant (NAC)
